Assay results published in article PMC7816196, “Antitubercular 2-Pyrazolylpyrimidinones: Structure–Activity Relationship and Mode-of-Action Studies” (Journal of Medicinal Chemistry, 2021).
Values after ≈ are worked out from the molar mass of the structure shown. Read-outs that look alike come from different tables or passages of the source.

Legend:
[1] = Kinetic aqueous solubility at pH 7.4; type: physicochemical; conditions: phosphate buffered saline
Method: 3) In vitro ADME - assays
The kinetic solubility assay was p erfo rmed using a miniaturised shake flask method. 10 mM stock solutions of each of the test compounds were used to prepare calibration standards (10-220 µM) in DMSO. The same 10 mM stock soluti ons were accurately dispensed in duplicat e into 96-well plates and the DMSO dried down (MiVac GeneVac, 90 min, 37 °C). Thereafter, the samples were reconstituted (200 µM) in phosphate buffered saline (pH 7. 4) and shaken (20 hours,25 °C). The solutions were centrifuged, and the supernatant was an alysed by means of HPLC-DAD (Agilent 1200 Rapid Resolution HPLC with a diode array detector). Best fit calibration curves were constructed using the calibration standards, which were used to determine the aqueous samples’ solubility.4
The metabolic stability assay was performed in dup licate in a 96-well micro t itre plate. The test compounds (0.1 µM) were incubated individually in mouse, rat and pooled human liver microsomes (final protei n concentration of 0.4 m g/mL; XenoTech, Lenexa, KS), suspended in 0.1M phosphate buffer (pH 7.4) for predetermined time points, in the presence and abs ence of the cofactor NADPH (1 mM). Reactions were quenched by adding 300 µL of ice cold acetonitrile containing internal standard (carbamazepine, 0.0236 µg/mL). The samples were centrifuged and test in the supernatant were an alysed by means of LC-MS/MS ((Agilent Rapid Resolution HPLC, AB SCIEX 4500 MS). The rel ative loss of parent compound over time w as monitored and plots (concentration vs. time) were prepared per compound to determine the first order rate constant for compound depletion. This was in turn used to calculate h alf-life, in vitro intrinsic clearance and in vivo hepatic extraction ratio. Metabolite search es were not conducted during the met abolic stability assay.5

mmpL3-TetON = experiment: microbe, parasite or virus in culture; type: cell-based, M. tuberculosis; conditions: for MIC50 / MIC: Mycobacterium tuberculosis
WT H37Rv = experiment: microbe, parasite or virus in culture; type: cell-based, M. tuberculosis; conditions: Mycobacterium tuberculosis
Mtb H37Rv = experiment: MIC against Mtb H37Rv, Alamar Blue broth microdilution; type: cell-based, Mycobacterium tuberculosis; conditions: Mycobacterium tuberculosis, H37RV
[2] = Mouse pharmacokinetics, i.v. and oral
in vivo = conditions: male, C57/BL6, mouse
[3] = pH 7.4, aqueous (kinetic) solubility at pH 7.4, read-out: Solubility
[4] = supplement csv, medium not stated
[5] = male, C57/BL6, mouse, whole blood, iv, 2 mg/kg
[6] = male, C57/BL6, mouse, whole blood, po, 20 mg/kg

In the case of `Cc1cc(NCCO)n(-c2nc(C(F)(F)F)cc(=O)[nH]2)n1` [Compound 37, 2-(5-((2-Hydroxyethyl)amino)-3-methyl-1H-pyrazol-1-yl)-6-(trifluoromethyl)pyrimidin-4(3H)-one], the solubility at 20 h [1, 3] was ≥ 200 µM.

With `COCCNc1cc(C)nn1-c1nc(C(F)(F)F)cc(=O)[nH]1` [Compound 38, 2-(5-((2-Methoxyethyl)amino)-3-methyl-1H-pyrazol-1-yl)-6-(trifluoromethyl)pyrimidin-4(3H)-one] the “change in MIC on transcriptional silencing of mmpL3” value (mmpL3-TetON) was “no significant change”, the MIC50 (mmpL3-TetON; experiment: Follow-Up) was 0.78 µM (≈ 0.247 µg/mL) and the MIC (mmpL3-TetON; experiment: Initial) was 1.1 µM (≈ 0.349 µg/mL). The MIC50 (mmpL3-TetON; experiment: Initial) was 0.47 µM (≈ 0.149 µg/mL), the solubility at 20 h [1, 3] was ≥ 200 µM and the MIC (WT H37Rv; experiment: Follow-Up) was 1.5 µM (≈ 0.476 µg/mL). The MIC50 (WT H37Rv; experiment: Follow-Up) was 0.87 µM (≈ 0.276 µg/mL), the MIC (WT H37Rv; experiment: Initial) was 1.1 µM (≈ 0.349 µg/mL) and the MIC50 (WT H37Rv; experiment: Initial) was 0.46 µM (≈ 0.146 µg/mL). For the same compound, the MIC (Mtb H37Rv; 168 h) was 1.5 to 2 µM (≈ 0.476 to 0.635 µg/mL).

`Cc1cc(NC2CCOCC2)n(-c2nc(C(F)(F)F)cc(=O)[nH]2)n1` [Compound 39, 2-(3-Methyl-5-((tetrahydro-2H-pyran-4-yl)amino)-1H-pyrazol-1-yl)-6-(trifluoromethyl)pyrimidin-4(3H)-one] gave an MIC (Mtb H37Rv; 168 h) of 1.5 to 2 µM (≈ 0.515 to 0.687 µg/mL) and an MIC (Mtb H37Rv; [4]) of 1 µM (≈ 0.343 µg/mL).

In the case of `Cc1cc(Nc2ccc(F)cc2)n(-c2nc(C(F)(F)F)cc(=O)[nH]2)n1` [Compound 40, 2-(5-((4-Fluorophenyl)amino)-3-methyl-1H-pyrazol-1-yl)-6-(trifluoromethyl)pyrimidin-4(3H)-one], the AUC(0-inf) [2, 5] was 256 µM·h, the CLint scaled [2, 5] was 34 mL/min/kg and the Cmax [2, 5] was 33.1 µM. For the same compound, the Vd [2, 5] was 0.1 L/kg, the clearance [2, 5] was 0.4 mL/min/kg and the bioavailability ([2]; male, C57/BL6, mouse, whole blood, oral, 20 mg/kg) was ~40%. The AUC(0-inf) [2, 6] was 1090 µM·h, the Cmax [2, 6] was 104 µM and the bioavailability [2, 6] was 44%. The tolerability ([2]; mouse, i.v. 2 mg/kg or oral 20 mg/kg) was “well tolerated”, the “change in MIC on transcriptional silencing of mmpL3” value (mmpL3-TetON) was “no significant change” and the MIC (mmpL3-TetON; experiment: Follow-Up) was 0.56 µM (≈ 0.198 µg/mL). It also gave an MIC50 (mmpL3-TetON; experiment: Follow-Up) of 0.36 µM (≈ 0.127 µg/mL), an MIC (mmpL3-TetON; experiment: Initial) of 0.34 µM (≈ 0.12 µg/mL) and an MIC50 (mmpL3-TetON; experiment: Initial) of 0.18 µM (≈ 0.0636 µg/mL). The half-life (in vivo; iv, 2 mg/kg) was 4 h, the half-life (in vivo; po, 20 mg/kg) was 6.1 h and the MIC (WT H37Rv; experiment: Follow-Up) was 0.51 µM (≈ 0.18 µg/mL). For the same compound, the MIC50 (WT H37Rv; experiment: Follow-Up) was 0.4 µM (≈ 0.141 µg/mL), the MIC (WT H37Rv; experiment: Initial) was 0.54 µM (≈ 0.191 µg/mL) and the MIC50 (WT H37Rv; experiment: Initial) was 0.3 µM (≈ 0.106 µg/mL).

With `Cc1cc(Nc2ccc(F)cc2F)n(-c2nc(C(F)(F)F)cc(=O)[nH]2)n1` [Compound 41, 2-(5-((2,4-Difluorophenyl)amino)-3-methyl-1H-pyrazol-1-yl)-6-(trifluoromethyl)pyrimidin-4(3H)-one] the MIC (Mtb H37Rv; 168 h) was 0.2 µM (≈ 0.0743 µg/mL).

Compound `Cc1cc(Nc2ccc(C#N)cc2)n(-c2nc(C(F)(F)F)cc(=O)[nH]2)n1` [Compound 42, 4-((3-Methyl-1-(6-oxo-4-(trifluoromethyl)-1,6-dihydropyrimidin-2-yl)-1H-pyrazol-5-yl)amino)benzonitrile] has an MIC (Mtb H37Rv; 168 h) of 9 µM (≈ 3.24 µg/mL) and an MIC (Mtb H37Rv; [4]) of 9 µM (≈ 3.24 µg/mL).

In the case of `Cc1cc(Nc2ccc(C(=O)N(C)C)cc2)n(-c2nc(C(F)(F)F)cc(=O)[nH]2)n1` [Compound 43, N,N-Dimethyl-4-((3-Methyl-1-(6-oxo-4-(trifluoromethyl)-1,6-dihydropyrimidin-2-yl)-1H-pyrazol-5-yl)amino)benzamide], the solubility at 20 h [1, 3] was ≥ 200 µM.

With `Cc1cc(Nc2ccncc2)n(-c2nc(C(F)(F)F)cc(=O)[nH]2)n1` [Compound 44, 2-(3-Methyl-5-(pyridin-4-ylamino)-1H-pyrazol-1-yl)-6-(trifluoromethyl)pyrimidin-4(3H)-one] the solubility at 20 h ([1]; pH 7.4, supplement csv, pH 7.4, read-out: SolubilitypH 7.4) was 22 µM (≈ 7.4 µg/mL).

Work on `Cc1cc(Nc2ccc(N3CCOCC3)cn2)n(-c2nc(C(F)(F)F)cc(=O)[nH]2)n1` [Compound 46, 2-(3-Methyl-5-((5-morpholinopyridin-2-yl)amino)-1H-pyrazol-1-yl)-6-(trifluoromethyl)pyrimidin-4(3H)-one] yielded an MIC (Mtb H37Rv; 168 h) of 2 µM (≈ 0.843 µg/mL) and an MIC (Mtb H37Rv; [4]) of 2 µM (≈ 0.843 µg/mL).

With `Cc1nn(-c2nc(C(F)(F)F)cc(=O)[nH]2)c(C)c1Br` [Compound 48, 2-(4-Bromo-3,5-dimethyl-1H-pyrazol-1-yl)-6-(trifluoromethyl)pyrimidin-4(3H)-one] the solubility at 20 h [1, 3] was ≥ 200 µM.

With `Cc1nn(-c2nc(C(F)(F)F)cc(=O)[nH]2)c(C)c1N1CCOCC1` [Compound 50, 2-(3,5-Dimethyl-4-morpholino-1H-pyrazol-1-yl)-6-(trifluoromethyl)pyrimidin-4(3H)-one] the MIC (Mtb H37Rv; [4]) was 6 µM (≈ 2.06 µg/mL).

In the case of `Cc1cc(CN(C)C)nn1-c1nc(C(F)(F)F)cc(=O)[nH]1` [Compound 52, 2-(3-((Dimethylamino)methyl)-5-methyl-1H-pyrazol-1-yl)-6-(trifluoromethyl)pyrimidin-4(3H)-one], the solubility at 20 h [1, 3] was ≥ 200 µM.

Work on `CC[C@@H](CO)NCCN[C@@H](CC)CO` [Ethambutol, reference compound] yielded an MIC (mmpL3-TetON; experiment: Follow-Up) of 4.9 µM (≈ 1 µg/mL), an MIC50 (mmpL3-TetON; experiment: Follow-Up) of 1.9 µM (≈ 0.388 µg/mL) and an MIC (mmpL3-TetON; experiment: Initial) of 1.6 µM (≈ 0.327 µg/mL). The MIC50 (mmpL3-TetON; experiment: Initial) was 1.3 µM (≈ 0.266 µg/mL), the MIC (WT H37Rv; experiment: Follow-Up) was 3.8 µM (≈ 0.776 µg/mL) and the MIC50 (WT H37Rv; experiment: Follow-Up) was 1.4 µM (≈ 0.286 µg/mL). The MIC (WT H37Rv; experiment: Initial) was 2.4 µM (≈ 0.49 µg/mL) and the MIC50 (WT H37Rv; experiment: Initial) was 0.98 µM (≈ 0.2 µg/mL).

`CC(C)=CCC/C(C)=C/CNCCNC1C2CC3CC(C2)CC1C3` (stereo not drawn) [SQ109, reference compound] gave an MIC (mmpL3-TetON; experiment: Follow-Up) of 0.19 µM (≈ 0.0628 µg/mL), an MIC50 (mmpL3-TetON; experiment: Follow-Up) of 0.1 µM (≈ 0.0331 µg/mL) and an MIC (mmpL3-TetON; experiment: Initial) of 0.27 µM (≈ 0.0893 µg/mL). It also gave an MIC50 (mmpL3-TetON; experiment: Initial) of 0.071 µM (≈ 0.0235 µg/mL), an MIC (WT H37Rv; experiment: Follow-Up) of 0.98 µM (≈ 0.324 µg/mL) and an MIC50 (WT H37Rv; experiment: Follow-Up) of 0.54 µM (≈ 0.179 µg/mL). The MIC (WT H37Rv; experiment: Initial) was 0.99 µM (≈ 0.327 µg/mL) and the MIC50 (WT H37Rv; experiment: Initial) was 0.39 µM (≈ 0.129 µg/mL).
